Reference: patent US11191811B2, “Osteocalcin as a treatment for frailty associated with aging” (THE TRUSTEES OF COLUMBIA UNIVERSITY IN THE CITY OF NEW YORK, priority 2014, dated 2021)

Legend:
Assay type in all cases: in vivo, mouse
Gprc6aMck−/− mice = assay: Endurance exercise on treadmill until exhaustion; settings: Gprc6aMck−/− mice treated with Ocn
Experimental: First, whether a single intraperitoneal injection of uncarboxylated mouse osteocalcin (osteocalcin) (100 ng/g of body weight) immediately before exercise would improve the exercise capacity of 3 month-old WT mice was tested.
For exercise studies, all mice were trained before the tests to run on a treadmill (Harvard apparatus) for three days (10 minutes/day). The day of the test, mice were acclimated to the treadmill for 5 minutes followed by 10 minutes running at a constant speed of 17 cm/s, then a gradual increase in the speed up to 30 cm/s. Next, mice were run until exhaustion as defined by the number of times a mouse fell off to the electric grid during one minute (>15). Measurements of muscle strength were carried out using a grip strength meter (Columbus instruments). Values are expressed as the average of five single measurements, taken one minute apart from each other. For all biochemical and metabolic analyses performed, blood/tissues were collected and processed either at rest or at the end of a 40 min run (30 cm/s).

Osteocalcin−/− mice = assay: Behavioral tests of adult Osteocalcin−/− offspring of osteocalcin-injected pregnant Osteocalcin−/− mothers; settings: 240 ng/day once a day to pregnant mothers, E0.5 to E18.5
Experimental: FIG. 13. Maternal osteocalcin determines spatial learning and memory in adult offspring. (A-F) DLT (A), EPMT (B), OFT (C), FST (D), TST (E), and MWMT (F) performed in 3-month-old Osteocalcin^−/− mice born from Osteocalcin^−/− mothers injected once a day with vehicle or recombinant uncarboxylated osteocalcin (240 ng/day) during pregnancy compared to WT mice. (G) Surface of the lateral ventricle over brain area (%) of E18.5 hippocampi coronal sections of WT embryos originating from WT mothers and Osteocalcin^−/− embryos originating from osteocalcin-injected Osteocalcin^−/− mothers. (H) Number of apoptotic cells (stained by TUNEL assay) of E18.5 hippocampi coronal sections of WT embryos originating from WT mothers and Osteocalcin^−/− embryos originating from Osteocalcin^−/− mothers injected with osteocalcin (240 ng/day). […]
For osteocalcin delivery to pregnant mice, IP injections (240 ng/day) were performed as soon as a plug was present daily until delivery (E0.5-E18.5). […] Leptin and osteocalcin content in sera and tissues were determined by ELISA.
Spatial memory was assessed with Morris water maze (MWM) setup (Morris, 1981, Nature 297:681-683) using a training protocol adapted for mice (D'Hooge et al., 2005, J. Soc. Neurosci. 25:6539-6549). […] Spatial learning is assessed across repeated trials (4 trials/day for 10 days). […]

wild type mice = assay: Glycemia during subcutaneous infusion; settings: 0.3, 1 and 3 ng/hour subcutaneously for 28 days, versus PBS
Experimental: FIG. 1. Osteocalcin subcutaneous infusion decreases glycemia in wild-type mice. Indicated doses of recombinant osteocalcin or PBS were infused subcutaneously for 28 days in wild-type mice. Blood glucose was measured at indicated days.
An in vivo experiment was conducted in which the effect of undercarboxylated osteocalcin on glycemia was monitored. Wild type mice were infused with 3 different amounts of mouse recombinant undercarboxylated osteocalcin or placebo (PBS) subcutaneously for 28 days (0.3, 1 and 3 ng/hour). Compared to the control animal infused with placebo, all three doses of undercarboxylated osteocalcin decreased glycemia in vivo over the 28 day period (FIG. 1).

With “uncarboxylated osteocalcin: Recombinant uncarboxylated mouse osteocalcin, bacterially produced, purified on glutathione beads and cleaved from the GST subunit by thrombin (YLGASVPSPDPLEPTREQCELNPACDELSDQYGLKTAYKRIYGITI)” the muscle function (Gprc6aMck−/− mice) was “did not improve”, the “anxiety or depression phenotypes of the offspring” value (Osteocalcin−/− mice) was “did not have any beneficial effect” and the “deficit in learning and memory of the offspring” value (Osteocalcin−/− mice) was “rescued over two third”. The glycemia (wild type mice) was “decreases” and the glycemia (wild type mice; listed as undercarboxylated osteocalcin) was “decreased”.
